In patent US8329717B2, “Pyrimidine derivatives and their use for controlling undesired plant growth” (Bayer Cropscience AG, priority 2008, dated 2012):

How the values were obtained:
[1] = test system: PHBPU; assay: Post-emergence herbicidal effect; type: in vivo; conditions: Dosage 320 g/ha, one-leaf stage, visual scoring after ca. 3 weeks vs untreated controls, 100% = plants have died
Method: (§1) 2. Post-Emergence Herbicidal Effect and Crop Plant Compatibility Seeds of monocotyledonous or dicotyledonous weed plants or crop plants are planted in wood-fiber pots in sandy loam, covered with earth and grown in a greenhouse under good growth conditions. 2 to 3 weeks after sowing, the test plants are treated in the one-leaf stage. The compounds according to the invention, formulated in the form of wettable powders (WP) or as emulsion concentrates (EC), are then sprayed onto the green plant parts as aqueous suspension or emulsion at a water application rate of 600 to 800 l/ha (converted) with the addition of 0.2% of wetting agent. The dosage of the compounds according to the invention is given in grams per hectare. After ca. 3 weeks' standing time of the test plants in the greenhouse under optimum growth conditions, the effect of the preparations is scored visually in comparison with untreated controls (herbicidal effect in percent (%): 100% effect=plants have died, 0% effect=as control plants).

[2] = test system: Polygonum convolvulus; assay: Pre-emergence herbicidal effect; type: in vivo; conditions: Dosage 320 g/ha, visual scoring after 3 weeks vs untreated controls, 100% = plants have died
Method in brief: (§2)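 Herbicidal effect is a visual percentage of damage relative to untreated controls, taken after 3 weeks in the greenhouse. Treatment went onto the covering soil directly after sowing, as emulsion or suspension at 600 to 800 l/ha water with 0.2% wetting agent, dosed in g/ha.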

[3] = test system: Viola tricolor; assay: Pre-emergence herbicidal effect; type: in vivo; conditions: Dosage 320 g/ha, visual scoring after 3 weeks vs untreated controls, 100% = plants have died
Method in brief: as §2

[4] = test system: Abutilon theophrasti; assay: Pre-emergence herbicidal effect; type: in vivo; conditions: Dosage 320 g/ha, visual scoring after 3 weeks vs untreated controls, 100% = plants have died
Method in brief: as §2

[5] = test system: Matricaria inodora; assay: Pre-emergence herbicidal effect; type: in vivo; conditions: Dosage 320 g/ha, visual scoring after 3 weeks vs untreated controls, 100% = plants have died
Method in brief: as §2

[6] = test system: Avena fatua; assay: Pre-emergence herbicidal effect; type: in vivo; conditions: Dosage 320 g/ha, visual scoring after 3 weeks vs untreated controls, 100% = plants have died
Method in brief: as §2

[7] = test system: Alopecurus myosuroides; assay: Pre-emergence herbicidal effect; type: in vivo; conditions: Dosage 320 g/ha, visual scoring after 3 weeks vs untreated controls, 100% = plants have died
Method in brief: as §2

[8] = test system: Echinochloa crus-galli; assay: Pre-emergence herbicidal effect; type: in vivo; conditions: Dosage 320 g/ha, visual scoring after 3 weeks vs untreated controls, 100% = plants have died
Method in brief: as §2

[9] = test system: Lolium multiflorum; assay: Pre-emergence herbicidal effect; type: in vivo; conditions: Dosage 320 g/ha, visual scoring after 3 weeks vs untreated controls, 100% = plants have died
Method in brief: as §2

[10] = test system: Setaria viridis; assay: Pre-emergence herbicidal effect; type: in vivo; conditions: Dosage 320 g/ha, visual scoring after 3 weeks vs untreated controls, 100% = plants have died
Method in brief: as §2

[11] = test system: Amaranthus retroflexus; assay: Pre-emergence herbicidal effect; type: in vivo; conditions: Dosage 320 g/ha, visual scoring after 3 weeks vs untreated controls, 100% = plants have died
Method in brief: as §2

[12] = test system: Veronica persica; assay: Pre-emergence herbicidal effect; type: in vivo; conditions: Dosage 320 g/ha, visual scoring after 3 weeks vs untreated controls, 100% = plants have died
Method in brief: as §2

[13] = test system: Stellaria media; assay: Pre-emergence herbicidal effect; type: in vivo; conditions: Dosage 320 g/ha, visual scoring after 3 weeks vs untreated controls, 100% = plants have died
Method in brief: as §2

[14] = test system: Polygonum convolvulus; assay: Post-emergence herbicidal effect; type: in vivo; conditions: Dosage 320 g/ha, one-leaf stage, visual scoring after ca. 3 weeks vs untreated controls, 100% = plants have died
Method: as §1, with “The following abbreviations are used in the tables below: [table] 2.” for “2.”

[15] = test system: Viola tricolor; assay: Post-emergence herbicidal effect; type: in vivo; conditions: Dosage 320 g/ha, one-leaf stage, visual scoring after ca. 3 weeks vs untreated controls, 100% = plants have died
Method: as §1, with “The following abbreviations are used in the tables below: [table] 2.” for “2.”

[16] = test system: Abutilon theophrasti; assay: Post-emergence herbicidal effect; type: in vivo; conditions: Dosage 320 g/ha, one-leaf stage, visual scoring after ca. 3 weeks vs untreated controls, 100% = plants have died
Method: as §1, with “The following abbreviations are used in the tables below: [table] 2.” for “2.”

[17] = test system: Matricaria inodora; assay: Post-emergence herbicidal effect; type: in vivo; conditions: Dosage 320 g/ha, one-leaf stage, visual scoring after ca. 3 weeks vs untreated controls, 100% = plants have died
Method: as §1, with “The following abbreviations are used in the tables below: [table] 2.” for “2.”

[18] = test system: Alopecurus myosuroides; assay: Post-emergence herbicidal effect; type: in vivo; conditions: Dosage 320 g/ha, one-leaf stage, visual scoring after ca. 3 weeks vs untreated controls, 100% = plants have died
Method: as §1, with “The following abbreviations are used in the tables below: [table] 2.” for “2.”

[19] = test system: Echinochloa crus-galli; assay: Post-emergence herbicidal effect; type: in vivo; conditions: Dosage 320 g/ha, one-leaf stage, visual scoring after ca. 3 weeks vs untreated controls, 100% = plants have died
Method: as §1, with “The following abbreviations are used in the tables below: [table] 2.” for “2.”

[20] = test system: Lolium multiflorum; assay: Post-emergence herbicidal effect; type: in vivo; conditions: Dosage 320 g/ha, one-leaf stage, visual scoring after ca. 3 weeks vs untreated controls, 100% = plants have died
Method: as §1, with “The following abbreviations are used in the tables below: [table] 2.” for “2.”

[21] = test system: Amaranthus retroflexus; assay: Post-emergence herbicidal effect; type: in vivo; conditions: Dosage 320 g/ha, one-leaf stage, visual scoring after ca. 3 weeks vs untreated controls, 100% = plants have died
Method: as §1, with “The following abbreviations are used in the tables below: [table] 2.” for “2.”

[22] = test system: Veronica persica; assay: Post-emergence herbicidal effect; type: in vivo; conditions: Dosage 320 g/ha, one-leaf stage, visual scoring after ca. 3 weeks vs untreated controls, 100% = plants have died
Method: as §1, with “The following abbreviations are used in the tables below: [table] 2.” for “2.”

[23] = test system: Stellaria media; assay: Post-emergence herbicidal effect; type: in vivo; conditions: Dosage 320 g/ha, one-leaf stage, visual scoring after ca. 3 weeks vs untreated controls, 100% = plants have died
Method: as §1, with “The following abbreviations are used in the tables below: [table] 2.” for “2.”

[24] = test system: Setaria viridis; assay: Post-emergence herbicidal effect; type: in vivo; conditions: Dosage 320 g/ha, one-leaf stage, visual scoring after ca. 3 weeks vs untreated controls, 100% = plants have died
Method: as §1, with “The following abbreviations are used in the tables below: [table] 2.” for “2.”

[25] = logp (HCOOH), chemicophysical data; conditions: HCOOH (formic acid)
[26] = test system: Avena fatua; assay: Post-emergence herbicidal effect; type: in vivo; conditions: Dosage 320 g/ha, one-leaf stage, visual scoring after ca. 3 weeks vs untreated controls, 100% = plants have died
Method: as §1, with “The following abbreviations are used in the tables below: [table] 2.” for “2.”

| Structure (SMILES) | Post-emergence herbicidal effect PHBPU [1] [%] | Pre-emergence herbicidal effect POLCO [2] [%] | Pre-emergence herbicidal effect VIOTR [3] [%] | Pre-emergence herbicidal effect MATIN [5] [%] | Pre-emergence herbicidal effect AVEFA [6] [%] | Pre-emergence herbicidal effect ALOMY [7] [%] | Pre-emergence herbicidal effect ECHCG [8] [%] | Pre-emergence herbicidal effect LOLMU [9] [%] | Pre-emergence herbicidal effect SETVI [10] [%] | Pre-emergence herbicidal effect AMARE [11] [%] | Pre-emergence herbicidal effect VERPE [12] [%] | Pre-emergence herbicidal effect STEME [13] [%] | Post-emergence herbicidal effect POLCO [14] [%] | Post-emergence herbicidal effect MATIN [17] [%] | Post-emergence herbicidal effect ALOMY [18] [%] | Post-emergence herbicidal effect ECHCG [19] [%] | Post-emergence herbicidal effect LOLMU [20] [%] | Post-emergence herbicidal effect AMARE [21] [%] | Post-emergence herbicidal effect VERPE [22] [%] | Post-emergence herbicidal effect STEME [23] [%] | other results |
| --- | --- | --- | --- | --- | --- | --- | --- | --- | --- | --- | --- | --- | --- | --- | --- | --- | --- | --- | --- | --- | --- |
| Cc1nc(N[C@@H]2CCOc3c(F)cccc32)nc(N)c1C#N [Example 1.26] | 90 | 90 | 100 | 100 | 90 | 100 | 100 | 100 | 100 | 100 | 100 | 100 | 80 | 80 | 85 | 90 | 90 | 85 | 95 | 90 | Pre-emergence herbicidal effect ABUTH [4]: 80%; Post-emergence herbicidal effect VIOTR [15]: 85%; Post-emergence herbicidal effect ABUTH [16]: 80% |
| Cc1ccc2c(c1)[C@H](Nc1ncc(Br)c(N)n1)[C@@H](C)C2 [Example 1.67, 5-Bromo-N2-[(1R,2S)-2,6-dimethyl-2,3-dihydro-1H-inden-1-yl]pyrimidine-2,4-diamine] | 93 | 100 | 100 | 100 | 80 | 95 | 100 | 95 | 100 | 100 | 100 | 100 | 85 | 80 | 85 | 95 | 87 | 90 | 85 | 90 | Pre-emergence herbicidal effect ABUTH [4]: 90%; Post-emergence herbicidal effect VIOTR [15]: 80%; Post-emergence herbicidal effect ABUTH [16]: 90%; Post-emergence herbicidal effect SETVI [24]: 87%; chromatographic logP [25]: 1.3 |
| N#Cc1cnc(N[C@@H]2CCCc3ccccc32)nc1N [Example 1.30, 4-Amino-2-[(1R)-1,2,3,4-tetrahydronaphthalen-1-ylamino]pyrimidine-5-carbonitrile] |  | 100 | 100 | 100 | 100 | 100 | 100 | 100 | 100 | 100 | 100 | 100 | 80 | 80 | 95 | 100 | 100 | 93 | 90 | 80 | Post-emergence herbicidal effect AVEFA [26]: 100%; Post-emergence herbicidal effect SETVI [24]: 95%; chromatographic logP [25]: 1.92 |
